Tested on: 855422-203-R-J1-PDC spheroids with HUVEC/MSC, viability
Assay: Anticancer human tumor 855422-203-R-J1-PDC patient-derived bladder carcinoma cell line growth inhibition [PI3K]
Conditions: for IC50: curve of first compound; for viability, T/C: stronger effect = lower value; active means viability on the fitted dose curve at most 10% of control; inactive means the rest
Procedure, shortened: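 Targeted small molecules plus PI3K inhibitors, half-log dose series from Cmax (default top 10 microM), were applied to heterotypic spheroids of cancer cells with HUVEC and MSCs. Viability indicated growth inhibition.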

[1] = second compound 0.00316 µM, first compound 0.0316 µM
[2] = second compound 0.00316 µM, first compound 0.1 µM
[3] = second compound 0.01 µM, first compound 0.0316 µM
[4] = second compound 0.01 µM, first compound 0.1 µM
[5] = second compound 0.0316 µM, first compound 0.0316 µM
[6] = second compound 0.0316 µM, first compound 0.1 µM
[7] = second compound 0.1 µM, first compound 0.0316 µM
[8] = second compound 0.1 µM, first compound 0.1 µM
[9] = second compound 0.316 µM, first compound 0.0316 µM
[10] = second compound 0.316 µM, first compound 0.1 µM
[11] = second compound 1 µM, first compound 0.0316 µM
[12] = second compound 1 µM, first compound 0.1 µM
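Further: agents incubated with spheroids for one week before read-out.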
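Wherever viability, T/C is given: 100% = DMSO vehicle-treated control wells.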

Cn1ncnc1[C@H]1c2n[nH]c(=O)c3cc(F)cc(c23)N[C@@H]1c1ccc(F)cc1 + CC(Nc1ccc2c(c1)OCCn1cc(N3C(=O)OCC3C(F)F)nc1-2)C(N)=O
> 0.1 µM: IC50 (second compound 0.00316 µM) | IC50 (second compound 0.01 µM) | IC50 (second compound 0.0316 µM) | IC50 (second compound 0.1 µM)
inactive: viability, T/C (second compound 0.00316 µM, first compound 0.000316 µM) 104% | viability, T/C (second compound 0.00316 µM, first compound 0.001 µM) 91.8% | viability, T/C (second compound 0.00316 µM, first compound 0.00316 µM) 107% | viability, T/C (second compound 0.00316 µM, first compound 0.01 µM) 87.5% | viability, T/C [1] 97.8% | viability, T/C [2] 109% | viability, T/C (second compound 0.01 µM, first compound 0.000316 µM) 114% | viability, T/C (second compound 0.01 µM, first compound 0.001 µM) 92.5% | viability, T/C (second compound 0.01 µM, first compound 0.00316 µM) 97% | viability, T/C (second compound 0.01 µM, first compound 0.01 µM) 99.4% | viability, T/C [3] 100% | viability, T/C [4] 104% | viability, T/C (second compound 0.0316 µM, first compound 0.000316 µM) 96.4% | viability, T/C (second compound 0.0316 µM, first compound 0.001 µM) 92.3% | viability, T/C (second compound 0.0316 µM, first compound 0.00316 µM) 90.6% | viability, T/C (second compound 0.0316 µM, first compound 0.01 µM) 88.3% | viability, T/C [5] 96% | viability, T/C [6] 91.8% | viability, T/C (second compound 0.1 µM, first compound 0.000316 µM) 74.7% | viability, T/C (second compound 0.1 µM, first compound 0.001 µM) 72.9% | viability, T/C (second compound 0.1 µM, first compound 0.00316 µM) 55.5% | viability, T/C (second compound 0.1 µM, first compound 0.01 µM) 69% | viability, T/C [7] 78% | viability, T/C [8] 80.8% | viability, T/C (second compound 0.316 µM, first compound 0.000316 µM) 56.4% | viability, T/C (second compound 0.316 µM, first compound 0.001 µM) 56% | viability, T/C (second compound 0.316 µM, first compound 0.00316 µM) 42.4% | viability, T/C (second compound 0.316 µM, first compound 0.01 µM) 56.1% | viability, T/C [9] 54.6% | viability, T/C [10] 40.7% | viability, T/C (second compound 1 µM, first compound 0.000316 µM) 39.1% | viability, T/C (second compound 1 µM, first compound 0.001 µM) 36.7% | viability, T/C (second compound 1 µM, first compound 0.00316 µM) 35.7% | viability, T/C (second compound 1 µM, first compound 0.01 µM) 35.6% | viability, T/C [11] 33.5% | viability, T/C [12] 27.2%
< 0.000316 µM: IC50 (second compound 1 µM)
0.0112 µM: IC50 (second compound 0.316 µM)

Cn1ncc(Cl)c1-c1cc(C(=O)NC(CN)Cc2cccc(F)c2)sc1Cl (centres undefined) + CC(Nc1ccc2c(c1)OCCn1cc(N3C(=O)OCC3C(F)F)nc1-2)C(N)=O
0.614 µM: IC50 (second compound 0.00316 µM)
active: viability, T/C (second compound 0.00316 µM, first compound 10 µM) 6.62% | viability, T/C (second compound 0.01 µM, first compound 10 µM) 8.23% | viability, T/C (second compound 0.0316 µM, first compound 10 µM) 5.89% | viability, T/C (second compound 0.1 µM, first compound 10 µM) 3.42% | viability, T/C (second compound 0.316 µM, first compound 10 µM) 1.76% | viability, T/C (second compound 1 µM, first compound 10 µM) 1.17%
0.561 µM: IC50 (second compound 0.0316 µM)
inactive: viability, T/C [1] 88% | viability, T/C [2] 65.1% | viability, T/C (second compound 0.00316 µM, first compound 0.316 µM) 60.5% | viability, T/C (second compound 0.00316 µM, first compound 1 µM) 43.6% | viability, T/C (second compound 0.00316 µM, first compound 3.16 µM) 31.9% | viability, T/C [3] 89.3% | viability, T/C [4] 72.4% | viability, T/C (second compound 0.01 µM, first compound 0.316 µM) 64.7% | viability, T/C (second compound 0.01 µM, first compound 1 µM) 44.9% | viability, T/C (second compound 0.01 µM, first compound 3.16 µM) 25.7% | viability, T/C [5] 75.7% | viability, T/C [6] 62.9% | viability, T/C (second compound 0.0316 µM, first compound 0.316 µM) 56.5% | viability, T/C (second compound 0.0316 µM, first compound 1 µM) 47.7% | viability, T/C (second compound 0.0316 µM, first compound 3.16 µM) 22.9% | viability, T/C [7] 64.5% | viability, T/C [8] 61.6% | viability, T/C (second compound 0.1 µM, first compound 0.316 µM) 40.3% | viability, T/C (second compound 0.1 µM, first compound 1 µM) 42.9% | viability, T/C (second compound 0.1 µM, first compound 3.16 µM) 19.8% | viability, T/C [9] 50.2% | viability, T/C [10] 50.2% | viability, T/C (second compound 0.316 µM, first compound 0.316 µM) 34.2% | viability, T/C (second compound 0.316 µM, first compound 1 µM) 39.2% | viability, T/C (second compound 0.316 µM, first compound 3.16 µM) 16.1% | viability, T/C [11] 38.1% | viability, T/C [12] 29% | viability, T/C (second compound 1 µM, first compound 0.316 µM) 32.4% | viability, T/C (second compound 1 µM, first compound 1 µM) 24.4% | viability, T/C (second compound 1 µM, first compound 3.16 µM) 12.2%
0.707 µM: IC50 (second compound 0.01 µM)
0.257 µM: IC50 (second compound 0.1 µM)
0.0352 µM: IC50 (second compound 0.316 µM)
< 0.0316 µM: IC50 (second compound 1 µM)

Reference: PubChem BioAssay AID1963967 (Molecular Pharmacology Branch, DTP, NCI, 2024)
